Patent publication US20240374740A1, “POLY AMPHIPHILIC COMPLEXES FOR THE DELIVERY OF A HYDROPHOBIC ACTIVE AGENT, COMPOSITIONS AND METHODS” (Université de Liège, priority 2021, published 2024)
In brackets after ≈: the same amount, converted by molar mass. Blank lines part the entries; values can stand above or below the compound they belong to.

Columns and labels:
[1] = Evolution with time of optical density (Do at 405 nm) of curcumin solutions in PBS pH 7.4 at 37° C.; type: physicochemical; conditions: PBS pH 7.4, 37° C.
[2] = test system: 3D7 cells synchronized at ring stage; assay: In vitro antimalarial growth inhibition assay (GIA), flow cytometry after 48 h; type: cell-based, P. falciparum; conditions: Plasmodium falciparum, 3D7, 48 h
Experimental: Since P. falciparum I usually asynchronous during in vitro culture, the generation of highly synchronized parasite cultures is requested to investigate their pharmacological properties in vitro. […] Samples of the PACs were incubated with the cells for 48 h and then parasitemia was evaluated by flow cytometry after labelling parasite nuclei with fluorescence (growth inhibition assay, GIA).
PACs loaded with atovaquone were analysed with 3D7 cells synchronized at ring stage. Samples were incubated with the cells for 48 h and then parasitemia was evaluated by flow cytometry after labelling parasite nuclei with fluorescence (growth inhibition assay, GIA). The pharmacological activity of atovaquone is expressed in terms of drug concentration needed to inhibit 50% of the cell population (IC50) (FIG. 9).

[3] = cited from earlier work; for solubility in water: free drug, 25° C.
[4] = free drug; cited from earlier work
[5] = test system: plasma proteins; conditions: in vivo; cited from earlier work
[6] = Dynamic Light Scattering (DLS) mean size of PACs; type: physicochemical; conditions: ibuprofen formulations by direct dissolution, 2 h after preparation

Compound: COc1cc(/C=C/C(=O)CC(=O)/C=C/c2ccc(O)c(OC)c2)ccc1O [Curcumin, curcumin]
- optical density (Do at 405 nm) ([1]; With BSA (1%), curcumin 2 μg/mL, 1 h): 0.275
- optical density (Do at 405 nm) ([1]; With BSA (1%), curcumin 2 μg/mL, 24 h): 0.214
- optical density (Do at 405 nm) ([1]; With BSA (1%), curcumin 2 μg/mL, 96 h): 0.437
- optical density (Do at 405 nm) ([1]; With BSA (1%), curcumin 10 μg/mL, 1 h): 1.102
- optical density (Do at 405 nm) ([1]; With BSA (1%), curcumin 10 μg/mL, 24 h): 1.007
- optical density (Do at 405 nm) ([1]; With BSA (1%), curcumin 10 μg/mL, 96 h): 0.701
- optical density (Do at 405 nm) ([1]; With BSA (1%), curcumin 20 μg/mL, 1 h): 1.875
- optical density (Do at 405 nm) ([1]; With BSA (1%), curcumin 20 μg/mL, 24 h): 1.508
- optical density (Do at 405 nm) ([1]; With BSA (1%), curcumin 20 μg/mL, 96 h): 0.899
- optical density (Do at 405 nm) ([1]; Without BSA, curcumin 2 μg/mL, 1 h): 0.068
- optical density (Do at 405 nm) ([1]; Without BSA, curcumin 2 μg/mL, 24 h): 0.019
- optical density (Do at 405 nm) ([1]; Without BSA, curcumin 2 μg/mL, 96 h): 0.001
- optical density (Do at 405 nm) ([1]; Without BSA, curcumin 10 μg/mL, 1 h): 0.321
- optical density (Do at 405 nm) ([1]; Without BSA, curcumin 10 μg/mL, 24 h): 0.097
- optical density (Do at 405 nm) ([1]; Without BSA, curcumin 10 μg/mL, 96 h): 0.064
- optical density (Do at 405 nm) ([1]; Without BSA, curcumin 20 μg/mL, 1 h): 0.717
- optical density (Do at 405 nm) ([1]; Without BSA, curcumin 20 μg/mL, 24 h): 0.253
- optical density (Do at 405 nm) ([1]; Without BSA, curcumin 20 μg/mL, 96 h): 0.113
- IC50 [2]: 14.2 µM
- solubility class in water (free drug) [3]: practically insoluble
- solubility in water [3]: < 1 µg/mL
- macroscopic aspect (curcumin 5 mg/ml, direct dissolution in aqueous phase (Example 3)): slightly yellow and less turbid suspension

Compound: O=C1C(O)=C([C@H]2CC[C@H](c3ccc(Cl)cc3)CC2)C(=O)c2ccccc21 [Atovaquone]
- IC50 [2]: 0.00084 µM
- LogP [4]: 5.8
- solubility class in water (free drug) [3]: practically insoluble
- bound to plasma proteins [5]: 99.9%

- Macroscopic aspect 2 h after dissolution (ibuprofen 5 mg/mL, polymer 45 mg/mL, direct dissolution in water, room temperature): Macroscopic crystals
- Cumulant DLS diameter [6]: >1,000,000 nm
Compound: CC(C)Cc1ccc(C(C)C(=O)O)cc1 (stereo not shown) [Ibuprofen]
- solubility in water [3]: 0.21 µg/mL (≈ 1.02 µM)

Compound: CCCSc1nc(N[C@@H]2C[C@H]2c2ccc(F)c(F)c2)c2nnn([C@@H]3C[C@H](OCCO)[C@@H](O)[C@H]3O)c2n1 [Ticagrelor]
- LogP [4]: 2.28

Compound: Ivermectin
- LogP [4]: 5.83
